# Tests used:
# Assay type in all cases: biochemical
# Papain = biological target: T1, Papain (Carica papaya, UniProt P00784); assay: Study of Papain inhibition (fluorescence); conditions: enzyme 20 ng/ml, 30 minutes at ambient temperature
# T1 construct: purchased Sigma
# T1 sequence (P00784 134-345): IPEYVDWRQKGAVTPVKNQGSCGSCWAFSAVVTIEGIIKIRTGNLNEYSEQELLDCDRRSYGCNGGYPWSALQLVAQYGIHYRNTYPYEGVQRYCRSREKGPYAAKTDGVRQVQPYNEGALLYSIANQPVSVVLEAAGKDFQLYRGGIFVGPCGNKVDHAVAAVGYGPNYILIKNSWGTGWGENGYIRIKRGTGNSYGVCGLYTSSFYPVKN
# Method: (§1) The products to be tested (10 mM) are diluted to […] in DMSO and distributed into Nunc polystyrene 96 well plates at a rate of 2 μl per well. Column 12 of the plate is reserved for the controls and therefore receives […] of DMSO (without products) per well. The plates are stored at −80° C. and thawed on the day of the experiment.
# (§2) The products are diluted to 50 μM by adding 38 μl of reaction buffer: sodium acetate 100 mM, EDTA 5 mM, DTT […] pH 5.5. The addition as well as all the operations by pipette are carried out with a CybiWell 96 tip pipette. After mixing the solutions, each product is transferred into 2 wells (duplicates) of a Greiner black 384 well plate at a rate of 10 μl per well. Two 96-well plates can therefore be tested in a 384-well plate.
# (§3) A solution of substrate at 50 μM, Z-Val-arg-AMC (Calbiochem), is prepared in the reaction buffer. The substrate, is then distributed into all the wells of the 384-well plate (20 μl per well).
# (§4) A solution of Cathepsin K at 12.5 ng/ml is prepared in the reaction buffer and distributed into all the wells of the 384-well plate (20 μl per well) except for the 16 wells serving as 100% inhibition controls (column 23 and 24, lines I to P) which receive 20 μl of enzyme-free buffer.
# (§5) The plates are then incubated 2H at ambient temperature, then read on Fluoroskan (Labsystems): excitation 390 nm; emission 460 nm
# (§6) The final concentrations of each of the reagents are: products 10 μM, substrate 20 μM, enzyme 5 ng/ml.
# (§7) The % inhibition for each of the products is calculated by using points at 0 and 100% inhibition of each plate as references. The products presenting a significant inhibition are then retested on a range of concentrations from 50 to 0.5 μM to determine an IC50.
# Study of Papain Inhibition:
# (§8) Protocol identical to that of Cathepsin K except for:
# Papain (Sigma), solution at 50 ng/ml, final concentration 20 ng/ml
# Incubation for 30 minutes at ambient temperature
# Cathepsin K = biological target: T2, Cathepsin K (Homo sapiens, UniProt P43235); assay: Study of Cathepsin K inhibition (fluorescence, Z-Val-arg-AMC); conditions: for IC50: substrate Z-Val-arg-AMC 20 μM, enzyme 5 ng/ml, 2H at ambient temperature, read-out: Cathepsin K IC50
# T2 sequence (P43235 115-329): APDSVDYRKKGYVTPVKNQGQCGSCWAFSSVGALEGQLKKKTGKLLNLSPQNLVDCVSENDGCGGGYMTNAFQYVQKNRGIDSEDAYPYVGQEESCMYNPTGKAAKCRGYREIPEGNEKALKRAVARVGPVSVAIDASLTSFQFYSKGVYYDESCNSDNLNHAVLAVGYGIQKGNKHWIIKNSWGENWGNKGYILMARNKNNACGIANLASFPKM
# Method: Study of Cathepsin K Inhibition:
# as §1, §2, §3, §4, §5, §6, §7
# Cathepsin B = biological target: T3, Cathepsin B (Homo sapiens, UniProt P07858); assay: Study of Cathepsin B inhibition (fluorescence, Z-arg-arg-AMC); conditions: for IC50: substrate Z-arg-arg-AMC 20 μM, enzyme 16 ng/ml, 1 hour at ambient temperature
# T3 construct: purchased Calbiochem
# Method: as §1, §2, §3, §4, §5, §6, §7
# Study of Cathepsin B Inhibition:
# as §8
# Z-arg-arg-AMC substrate (Calbiochem), solution at 50 μM, final concentration 20 μM
# Cathepsin B (Calbiochem), solution at 40 ng/ml, final concentration 16 ng/ml
# Incubation for 1 hour at ambient temperature
# [1] = printed beside 20 μM, meaning not explained
Molecule,IC50 (Papain) [µM],IC50 (Cathepsin K) [µM],other results
"CC(C)[C@H](NC(=O)[C@@H]1CCCN2C(=O)CC[C@H](NC(=O)NCCc3cccs3)C(=O)N12)C(=O)CSc1nnnn1-c1ccccc1 [Example 397, 9-[(9S)-[[[2-(thien-2-yl)-ethyl]amino]carbonyl]amino]-N-[(3S)-1-[(1-phenyl-1H-tetrazol-5-yl)thio]-4-methyl-2-oxo-3-pentyl]-octahydro-6,10-dioxo-6H-(1S)-pyridazino [1,2-a][1,2]diazepine-1-carboxamide]",18,20,
"C=CCOC(=O)CC[C@H](NC(=O)[C@@H]1CCCN2C(=O)CC[C@H](NC(=O)Nc3ccc(Oc4ccccc4)cc3)C(=O)N12)C(=O)CSCc1ccc(OC)cc1 [Example 130, (2-propenyl)(4S)6-[[(4-methoxyphenyl)methyl]thio]-4-[[[(1S,9S)-9-[[[(4-phenoxyphenyl)amino]carbonyl]amino]-octahydro-6,10-dioxo-6H-pyridazino[1,2-a][1,2]diazepine-1-yl]carbonyl]amino]-5-oxo-hexanoate]",6,20,
"O=C(NCCc1cccs1)N[C@H]1CCC(=O)N2CCC[C@@H](C(=O)N[C@@H](Cc3ccccc3)C(=O)CSc3nnnn3-c3ccccc3)N2C1=O [Example 220, 9-[(9S)-[[[2-(thien-2-yl)-ethyl]amino]carbonyl]amino]-N-[(2S)-1-phenyl-4-[(1-phenyl-1H-tetrazol-5-yl)thio]-3-oxo-2-butyl]-octahydro-6,10-dioxo-6H-(1S)-pyridazino [1,2-a][1,2]diazepine-1-carboxamide]",6,20,
"CC(C)[C@H](NC(=O)[C@@H]1CCCN2C(=O)CC[C@H](NC(=O)c3ccco3)C(=O)N12)C(=O)CSc1nc2ccccc2s1 [Example 374, 9-[(9S)-[(2-furanyl)carbonyl]amino]-N-[(3S)-1-[(benzothiazol-2-yl)thio]-4-methyl-2-oxo-3-pentyl]-octahydro-6,10-dioxo-6H-(1S)-pyridazino[1,2-a][1,2]diazepine-1-carboxamide]",7,20,
COC(=O)CCCC(=O)OCC(=O)[C@H](Cc1ccccc1)NC(=O)[C@@H]1CCCN2C(=O)CC[C@H](NC(=O)Nc3ccc(Oc4ccccc4)cc3)C(=O)N12 [Example 217],7,20,"Cathepsin K, percentage in parentheses beside IC50 value (% inhibition) (Cathepsin K; [1]): 30%"
"CC(C)[C@H](NC(=O)[C@@H]1CCCN2C(=O)CC[C@H](NC(=O)Nc3ccc(Oc4ccccc4)cc3)C(=O)N12)C(=O)CSc1nnnn1-c1ccccc1 [Example 389, 9-[(9S)-[[(4-phenoxyphenyl)amino]carbonyl]amino]-N-[(3S)-1-[(1-phenyl-1H-tetrazol-5-yl)thio]-4-methyl-2-oxo-3-pentyl]-octahydro-6,10-dioxo-6H-(1S)-pyridazino [1,2-a][1,2]diazepine-1-carboxamide]",6,20,
"C=CCOC(=O)CC[C@H](NC(=O)[C@@H]1CCCN2C(=O)CC[C@H](NC(=O)Nc3ccc(Oc4ccccc4)cc3)C(=O)N12)C(=O)CSc1nc2ccccc2s1 [Example 129, (2-propenyl)(4S)6-[(benzothiazol-2-yl)thio]-4-[[[(1S,9S)-9-[[[(4-phenoxyphenyl)amino]carbonyl]amino]-octahydro-6,10-dioxo-6H-pyridazino[1,2-a][1,2]diazepine-1-yl]carbonyl]amino]-5-oxo-hexanoate]",4,,
"COc1cccc(C(=O)N[C@H]2CCC(=O)N3CCC[C@@H](C(=O)N[C@H](C(=O)CSc4nc5ccccc5s4)C(C)C)N3C2=O)c1 [Example 366, 9-[(9S)-(3-methoxybenzoyl)amino]-N-[(3S)-1-[(benzothiazol-2-yl)thio]-4-methyl-2-oxo-3-pentyl]-octahydro-6,10-dioxo-6H-(1S)-pyridazino[1,2-a][1,2]diazepine-1-carboxamide]",17,,
"CC(C)[C@H](NC(=O)[C@@H]1CCCN2C(=O)CC[C@H](NC(=O)NCCc3cccs3)C(=O)N12)C(=O)CSc1nc2ccccc2s1 [Example 398, 9-[(9S)-[[[2-(thien-2-yl)-ethyl]amino]carbonyl]amino]-N-[(3S)-1-[(benzothiazol-2-yl)thio]-4-methyl-2-oxo-3-pentyl]-octahydro-6,10-dioxo-6H-(1S)-pyridazino[1,2-a][1,2]diazepine-1-carboxamide]",9,,
"C=CCOC(=O)CC[C@H](NC(=O)[C@@H]1CCCN2C(=O)CC[C@H](NC(=O)Nc3ccc(Oc4ccccc4)cc3)C(=O)N12)C(=O)C=[N+]=[N-] [Example 43, (2-propenyl)(4S)6-diazo-4-[[[(1S,9S)-9-[[[(4-phenoxyphenyl)amino]carbonyl]amino]-octahydro-6,10-dioxo-6H-pyridazino[1,2-a][1,2]diazepine-1-yl]carbonyl]amino]-5-oxo-hexanoate]",,1.5,IC50 (Cathepsin B): 15 µM
"(2-propenyl)(4S)6-diazo-4-[[[(1S,9S)-9-[[[[2-(p-2-yl)-ethyl]amino]carbonyl]amino]-octahydro-6,10-dioxo-6H-pyridazino[1,2-a][1,2]diazepine-1-yl]carbonyl]amino]-5-oxo-hexanoate [Example 44]",,2,"Cathepsin B, percentage in parentheses beside IC50 value (% inhibition) (Cathepsin B; [1]): 40%"
"O=C(CSc1nc2ccccc2s1)[C@H](Cc1ccccc1)NC(=O)[C@@H]1CCCN2C(=O)CC[C@H](NS(=O)(=O)c3ccc(C(F)(F)F)cc3)C(=O)N12 [Example 241, 9-[(9S)-[[[4-(trifluoromethyl)phenyl]sulphonyl]amino]-N-[(2S)-1-phenyl-4-(2-benzothiazolyl)thio]-3-oxo-2-butyl]-octahydro-6,10-dioxo-6H-(1S)-pyridazino[1,2-a][1,2]diazepine-1-carboxamide]",7,,
"CC(C)C[C@H](NC(=O)[C@@H]1CCCN2C(=O)CC[C@H](NS(=O)(=O)c3ccc4ccccc4c3)C(=O)N12)C(=O)COC(=O)c1c(Cl)cccc1Cl [Example 322, 9-[(9S)-[(2-naphthalenyl)sulphonyl]amino]-N-[(3S)-5-methyl-1-[(2,6-dichlorobenzoyl)oxy]-2-oxo-3-hexyl]-octahydro-6,10-dioxo-6H-(1S)-pyridazino[1,2-a][1,2]diazepine-1-carboxamide]",,20,IC50 (Cathepsin B): 6 µM
"C=CCOC(=O)CC[C@H](NC(=O)[C@@H]1CCCN2C(=O)CC[C@H](NS(=O)(=O)c3ccc(-c4ccon4)s3)C(=O)N12)C(=O)C=[N+]=[N-] [Example 48, (2-propenyl)(4S)6-diazo-4-[[[(1S,9S)-9-[[[5-(isoxazol-3-yl)-2-thienyl]sulphonyl]amino]-octahydro-6,10-dioxo-6H-pyridazino[1,2-a][1,2]diazepine-1-yl]carbonyl]amino]-5-oxo-hexanoate]",,3,IC50 (Cathepsin B): 7 µM
"O=C(Nc1ccc(Oc2ccccc2)cc1)N[C@H]1CCC(=O)N2CCC[C@@H](C(=O)N[C@@H](Cc3ccccc3)C(=O)COC(=O)Cc3ccsc3)N2C1=O [Example 216, 9-[(9S)-[[(4-phenoxyphenyl)amino]carbonyl]amino]-N-[(2S)-1-phenyl-4-[1-oxo-2-(3-thienyl)ethoxy]-3-oxo-2-butyl]-octahydro-6,10-dioxo-6H-(1S)-pyridazino[1,2-a][1,2]diazepine-1-carboxamide]",6,,
